These results are taken from US8609414B2, “Isolation and growth of stem cells from hemangiomas” (priority 2007, dated 2013).

In this assay the test system is hemangioma tumor spheres. To be noted: DMEM/F12 + 50 μg/ml VEGF + NEAA. The method, then: Another key property of stem cells is their ability to differentiate into mature cells. To assess whether hemangioma tumor sphere cells are able to differentiate into mature cells, tumor cells were cultured in appropriate growth factors.

VEGF: the “differentiation of hemangioma tumor sphere cells into mature cells” value (72 hours) is on record as “differentiated into the endothelial-like tissue”. The “time to changes in cell morphology” value (phase-contrast microscopy) is reported as not above 24 hours.
